Test results taken from patent US20200338094A1, “Use of a Heterocyclic Bcl-xL Inhibitor and Related Analogs for Removing Senescent Cells in the Treatment of Eye Diseases and Other Age-Related Conditions” (Unity Biotechnology, Inc., priority 2015, published 2020).

What was measured:
Bcl-2 = molecular target: T1, Bcl-2 (Homo sapiens, UniProt P10415); assay: Bcl inhibition homogeneous (AlphaScreen) binding assay, Bcl-2; conditions: read-out: Binding Affinities (Ki ± SD) Bcl-2
T1 construct: purchased Sigma-Aldrich Co., St. Louis, Mo
T1 sequence (P10415 whole entry, species assumed): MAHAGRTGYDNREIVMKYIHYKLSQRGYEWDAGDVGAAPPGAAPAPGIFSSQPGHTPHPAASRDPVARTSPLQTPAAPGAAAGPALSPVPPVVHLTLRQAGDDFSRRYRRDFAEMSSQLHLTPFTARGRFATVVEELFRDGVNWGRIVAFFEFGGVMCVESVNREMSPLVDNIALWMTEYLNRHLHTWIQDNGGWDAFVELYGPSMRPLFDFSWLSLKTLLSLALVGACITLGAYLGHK
Excerpt: (§1) This assay uses a homogenous assay technology based on oxygen channeling that is marketed by PerkinElmer Inc., Waltham, Mass.: see Eglen et al., Current Chemical Genomics, 2008, 1, 2-10. The test compound is combined with the target Bcl protein and a peptide representing the corresponding cognate ligand, labeled with biotin. The mixture is then combined with streptavidin bearing luminescent donor beads and luminescent acceptor beads, which proportionally reduces luminescence if the compound has inhibited the peptide from binding to the Bcl protein.
(§2) Bcl-2, Bcl-xL and Bcl-W are available from Sigma-Aldrich Co., St. Louis, Mo. Biotinylated BIM peptide (ligand for Bcl-2) and BAD peptide (ligand for Bcl-xL) are described in pre-grant publication US 2016/0038503 A1. AlphaScreen® Streptavidin donor beads and Anti-6×His AlphaLISA® acceptor beads are available from PerkinElmer.
(§3) To conduct the assay, a 1:4 dilution series of the compound is prepared in DMSO, and then diluted in assay buffer. In a 96-well PCR plate, the following are combined: 10 μL peptide, 10 μL test compound, and 10 μL BCL protein. The assay plate is incubated in the dark at room temperature for 24 h. The next day, donor beads and acceptor beads are combined, and […] is added to each well. After incubating in the dark for 30 minute, luminescence is measured using a plate reader, and the affinity or degree of inhibition by each test compound is determined.
(§4) The chosen compounds were further assayed to quantitatively determine the actual affinity for Bcl-xL, Bcl-2, and Bcl-w with a view to identifying candidate senolytic agents for use in treating age related conditions. FIGS. 2A, 2B, and 2C show the results of the binding assay, with those compounds towards the left of each graph having the highest affinity.

Bcl isoforms = assay: Binding affinity for the Bcl isoforms; conditions: Bcl-xL, Bcl-2, Bcl-w
Excerpt: as §1, §2, §3, §4

Bcl-xL = molecular target: T2, Bcl-xL (Homo sapiens, UniProt Q07817); assay: Bcl inhibition homogeneous (AlphaScreen) binding assay, Bcl-xL; conditions: read-out: Binding Affinities (Ki ± SD) Bcl-xL
T2 construct: purchased Sigma-Aldrich Co., St. Louis, Mo
T2 sequence (Q07817 whole entry, species assumed): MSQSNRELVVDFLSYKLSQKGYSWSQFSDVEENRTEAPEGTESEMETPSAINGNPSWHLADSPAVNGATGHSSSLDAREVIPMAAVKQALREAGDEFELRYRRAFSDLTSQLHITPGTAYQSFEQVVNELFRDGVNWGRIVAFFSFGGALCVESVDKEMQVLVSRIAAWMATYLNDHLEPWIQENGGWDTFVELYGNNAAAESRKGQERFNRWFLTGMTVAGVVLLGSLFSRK
Excerpt: as §1, §2, §3, §4

Bcl-w = molecular target: T3, Bcl-w (Homo sapiens, UniProt Q92843); assay: Bcl inhibition homogeneous (AlphaScreen) binding assay, Bcl-w; conditions: read-out: Binding Affinities (Ki ± SD) Bcl-w
T3 construct: purchased Sigma-Aldrich Co., St. Louis, Mo
T3 sequence (Q92843 1-193): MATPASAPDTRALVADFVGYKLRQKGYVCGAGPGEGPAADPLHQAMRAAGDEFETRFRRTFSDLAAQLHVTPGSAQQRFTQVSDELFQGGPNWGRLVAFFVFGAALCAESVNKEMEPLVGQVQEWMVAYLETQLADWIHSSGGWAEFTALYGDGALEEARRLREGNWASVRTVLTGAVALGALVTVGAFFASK
Excerpt: as §1, §2, §3, §4

[1] = system: senescent fibroblasts (SnCs), IMR90 cells; assay: Senolytic activity: killing senescent (irradiated) IMR90 fibroblasts, CellTiter-Glo; assay type: cell-based, human; conditions: for EC50: killing senescent (irradiated) fibroblasts in culture, read-out: Best SnCs EC50; for senolytic potency (EC50), in words: killing senescent cells; for SI (specificity for senescent cells): senescent vs non-senescent cells of the same tissue type
Excerpt: Human fibroblast IMR90 cells can be obtained from the American Type Culture Collection (ATCC®) with the designation CCL-186. The cells are maintained at <75% confluency in DMEM containing FBS and Pen/Strep in an atmosphere of 3% O2, 10% CO2, and 95% humidity. The cells are divided into three groups: irradiated cells (cultured for 14 days after irradiation prior to use), proliferating normal cells (cultured at low density for one day prior to use), and quiescent cells (cultured at high density for four day prior to use).
On day 0, the irradiated cells are prepared as follows. IMR90 cells are washed, placed in T175 flasks at a density of 50,000 cells per mL, and irradiated at 10-15 Gy. Following irradiation, the cells are plated at […] in 96-well plates. On days 1, 3, 6, 10, and 13, the medium in each well is aspirated and replaced with fresh medium.
On day 10, the quiescent healthy cells are prepared as follows. IMR90 cells are washed, covered with 3 mL of TrypLE trypsin-containing reagent (Thermofisher Scientific, Waltham, Mass.) and cultured for 5 min until the cells have rounded up and begin to detach from the plate. Cells are dispersed, counted, and prepared in medium at a concentration of 50,000 cells per mL. 100 µL of the cells is plated in each well of a 96-well plate. Medium is changed on day 13.
On day 13, the proliferating healthy cell population is prepared as follows. Healthy IMR90 cells are washed, covered with 3 mL of TrypLE and cultured for 5 minutes until the cells have rounded up and begin to detach from the plate. Cells are dispersed, counted, and prepared in medium at a concentration of 25,000 cells per mL. 100 µL of the cells is plated in each well of a 96-well plate.
On day 14, test senolytic agents are combined with the cells as follows. A DMSO dilution series of each test compound is prepared at 200 times the final desired concentration in a 96-well PCR plate. Immediately before use, the DMSO stocks are diluted 1:200 into prewarmed complete medium. Medium is aspirated from the cells in each well, and 100 µL/well of the compound containing medium is added.
The test senolytic agents are cultured with the cells for 6 days, replacing the culture medium with fresh medium and the same compound concentration on day 17. Bcl-2 inhibitors such as those tested in the examples that follow are cultured with the cells for 3 days. The assay system uses the properties of a thermostable luciferase to enable reaction conditions that generate a stable luminescent signal while simultaneously inhibiting endogenous ATPase released during cell lysis. At the end of the culture period, 100 µL of CellTiter-Glo@ reagent (Promega Corp., Madison, Wis.) is added to each of the wells. The cell plates are placed for 30 seconds on an orbital shaker, and luminescence is measured.
Furthermore, even if the compound is potent, it would not be suitable for use as a therapeutic unless it preferentially kills senescent cells with a high degree of selectivity. Accordingly, compounds in the library showing high Bcl binding affinity were further screened for their ability to kill irradiated fibroblasts, in comparison with replicating fibroblasts or fibroblasts that were quiescent (due to confluence) but not senescent.

With `Cc1c(S(C)(=O)=O)c(-c2cc(F)cc(N3CCN(c4ccc(NS(=O)(=O)c5ccc(N[C@H](CCN6CCC(O)CC6)CSc6ccccc6)c(S(=O)(=O)C(F)(F)F)c5)cc4)CC3)c2)c(-c2ccc(Cl)cc2)n1C(C)C` [BM-1197] the Ki (Bcl-2) was 0.448 nM, the “binding affinities (Ki) for the Bcl isoforms, in words” value (“binding affinities (Ki)” for short) (Bcl isoforms) was “nanomole to picomole range” and the Ki (Bcl-xL) was 0.295 nM. For the same compound, the Ki (Bcl-w) was 0.292 nM, the EC50 [1] was 5 nM and the “senolytic potency (EC50), in words” value [1] was “potent in the nanomole range”. The “SI (specificity for senescent cells)” value [1] was 366.7.

With `CCn1c(C)c(S(C)(=O)=O)c(-c2cc(F)cc(N3CCN(c4ccc(NS(=O)(=O)c5ccc(N[C@H](CCN6CCC(O)CC6)CSc6ccccc6)c(S(=O)(=O)C(F)(F)F)c5)cc4)CC3)c2)c1-c1ccc(F)cc1` [BM-1192] the EC50 [1] was 50 nM and the “SI (specificity for senescent cells)” value [1] was 60.0.

Compound `Cc1c(C(=O)O)c(-c2cccc(N3CCN(c4ccc(NS(=O)(=O)c5ccc(N[C@H](CCN6CCC(O)CC6)CSc6ccccc6)c(S(=O)(=O)C(F)(F)F)c5)cc4)CC3)c2)c(-c2ccc(Cl)cc2)n1C(C)C` [BM-962] has a Ki (Bcl-2) of 3.39 nM, a Ki (Bcl-xL) of 0.0574 nM and a Ki (Bcl-w) of 0.538 nM. For the same compound, the EC50 [1] was 200 nM and the “SI (specificity for senescent cells)” value [1] was 18.5.

With `Cc1c(S(C)(=O)=O)c(-c2cc(F)cc(N3CCN(c4ccc(NS(=O)(=O)c5ccc(N[C@H](CCN6CCC(O)CC6)CSc6ccccc6)c(S(=O)(=O)C(F)(F)F)c5)cc4)CC3)c2)c(-c2ccc(F)cc2)n1C(C)C` [BM-1195] the Ki (Bcl-2) was 0.667 nM, the “binding affinities (Ki)” value (Bcl isoforms) was “nanomole to picomole range” and the Ki (Bcl-xL) was 0.149 nM. The Ki (Bcl-w) was 0.175 nM, the EC50 [1] was 6 nM and the “senolytic potency (EC50), in words” value [1] was “potent in the nanomole range”. The “SI (specificity for senescent cells)” value [1] was 128.7.

For `CCn1c(C)c(C(=O)O)c(-c2cccc(N3CCN(c4ccc(NS(=O)(=O)c5ccc(N[C@H](CCN6CCC(O)CC6)CSc6ccccc6)c(S(=O)(=O)C(F)(F)F)c5)cc4)CC3)c2)c1-c1ccc(Cl)cc1` [BM-957], the Ki (Bcl-2) was 3.33 nM, the Ki (Bcl-xL) was 0.0453 nM and the Ki (Bcl-w) was 0.66 nM. The EC50 [1] was 300 nM and the “SI (specificity for senescent cells)” value [1] was 11.7.

`Cc1c(S(C)(=O)=O)c(-c2cc(F)cc(N3CCN(c4ccc(NS(=O)(=O)c5ccc(N[C@H](CCN6CCC(C(=O)O)CC6)CSc6ccccc6)c(S(=O)(=O)C(F)(F)F)c5)cc4)CC3)c2)c(-c2ccc(Cl)cc2)n1C(C)C` [BM-1244] was tested, and the Ki (Bcl-2) was 0.451 nM, the “binding affinities (Ki)” value (Bcl isoforms) was “nanomole to picomole range” and the Ki (Bcl-xL) was 0.135 nM. The Ki (Bcl-w) was 0.357 nM, the EC50 [1] was 300 nM and the “SI (specificity for senescent cells)” value [1] was 66.7.

`CCn1c(C)c(C(=O)NS(C)(=O)=O)c(-c2cccc(N3CCN(c4ccc(NS(=O)(=O)c5ccc(N[C@H](CCN(C)C)CSc6ccccc6)c([N+](=O)[O-])c5)cc4)CC3)c2)c1-c1ccc(Cl)cc1` [BM-1075] was tested, and the Ki (Bcl-2) was 0.179 nM, the “binding affinities (Ki)” value (Bcl isoforms) was “nanomole to picomole range” and the Ki (Bcl-xL) was 0.00573 nM. For the same compound, the Ki (Bcl-w) was 0.161 nM, the EC50 [1] was 300 nM and the “SI (specificity for senescent cells)” value [1] was 15.3.
